Where a chain is given by its changes, count along the chain named. Where two headings read alike, the source gives them in different places. Where no end group is shown, it is not given here.
Tests used:
ATAD2B bromodomain = target: T1, ATAD2B bromodomain (Homo sapiens, UniProt Q9ULI0); assay: ITC binding to the wild-type ATAD2B bromodomain
T1 sequence (Q9ULI0 953-1085): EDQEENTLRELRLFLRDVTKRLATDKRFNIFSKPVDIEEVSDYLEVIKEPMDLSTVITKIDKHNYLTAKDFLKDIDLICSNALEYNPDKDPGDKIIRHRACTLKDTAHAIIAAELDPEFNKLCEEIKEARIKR

ATAD2 bromodomain [1] = settings: cited from earlier work
[2] = target: T2, ATAD2B bromodomain Y1037A (Homo sapiens, UniProt Q9ULI0, Y1037A); assay: ITC binding to the ATAD2B bromodomain mutant Y1037A; settings: ITC at 5 °C, 20 mM NaH2PO4 pH 7.0, 150 mM NaCl; no binding in duplicate
T2 sequence (Q9ULI0 953-1085 Y1037A): T1 sequence (Q9ULI0 953-1085) with Y85A

ATAD2B bromodomain Y995A = target: T3, ATAD2B bromodomain Y995A (Homo sapiens, UniProt Q9ULI0, Y995A); assay: ITC binding to the ATAD2B bromodomain mutant Y995A; settings: ITC at 5 °C, 20 mM NaH2PO4 pH 7.0, 150 mM NaCl; no binding in duplicate
T3 sequence (Q9ULI0 953-1085 Y995A): T1 sequence (Q9ULI0 953-1085) with Y43A

[3] = target: T4, ATAD2Bshort bromodomain (lacks residues 988–992, VDIEE) (Homo sapiens, UniProt Q9ULI0, DEL988-992); assay: ITC binding to the ATAD2Bshort splice variant bromodomain; settings: ITC at 5 °C, 20 mM NaH2PO4 pH 7.0, 150 mM NaCl; no binding in duplicate
T4 sequence (Q9ULI0 953-1080 isoform Q9ULI0-2): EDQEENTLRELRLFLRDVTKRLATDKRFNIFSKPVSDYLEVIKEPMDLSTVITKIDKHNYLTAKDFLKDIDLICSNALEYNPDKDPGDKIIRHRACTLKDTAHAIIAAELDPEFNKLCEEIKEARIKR

ATAD2 bromodomain [4] = settings: time-resolved fluorescence energy transfer; cited from earlier work

Compound | Dissociation constant, Y1037A ATAD2B bromodomain [2] | Dissociation constant, Y995A ATAD2B bromodomain (ATAD2B bromodomain Y995A) | Dissociation constant, ATAD2Bshort bromodomain [3] | other results
CC(=O)NCCCC[C@H](NC(=O)CNC(=O)[C@H](CC(C)C)NC(=O)CNC(=O)[C@H](CCCCN)NC(=O)CNC(=O)CNC(=O)[C@H](CCCCN)NC(=O)CN)C(=O)NCC(=O)NCC(=O)N[C@@H](C)C(=O)N[C@@H](CCCCN)C(=O)N[C@@H](CCCNC(=N)N)C(N)=O [H4K12ac (res 4–17)] | no binding | no binding | no binding | Kd (ATAD2B bromodomain): 50.5 ± 5.8 µM; Kd (ATAD2 bromodomain [1]; read-out: ATAD2 reported KDs, value is for the H4K12ac res 1–25 peptide): 2.5 µM
SGRGKGGK(Ac)GL-NH2 [H4K8ac (res 1–10)] |  |  |  | ATAD2 reported KDs (no KD available, interaction only) (ATAD2 bromodomain [1]; qualitative): NA, interaction shown[16]
SGRGK(Ac)GGK(Ac)GL-NH2 [H4K5acK8ac (res 1–10)] | no binding | no binding | no binding | 
SGRGK(Ac)GGKGL-NH2 [H4K5ac (res 1–10)] | no binding | no binding | no binding | Kd (ATAD2 bromodomain [1]; read-out: ATAD2 reported KDs, value is for the H4K5ac res 1–20 peptide): 22 µM
H4K5acK8acK12acK16ac (1–25): tetra-acetylated histone H4 residues 1–25 peptide of the cited TR-FRET assay |  |  |  | recognition by the ATAD2 bromodomain in TR-FRET (ATAD2 bromodomain [4]): recognizes
H4K5acK12ac (1–25): diacetylated histone H4 residues 1–25 peptide of the cited TR-FRET assay |  |  |  | recognition by the ATAD2 bromodomain in TR-FRET (ATAD2 bromodomain [4]): recognizes
GKGGKGLGKGGAKRHRK [H4 unmodified (res 4–17)] | no binding | no binding | no binding | 
LGK(Ac)GGAK(Ac)RHRK-NH2 [H4K12acK16ac (res 10–20)] |  |  |  | Kd (ATAD2B bromodomain): 214 ± 7 µM
SGRGK(Ac)QGGKARA-NH2 [H2AK5ac (res 1–12)] | no binding | no binding | no binding | 
RKSTGG(Kac)APRKQ [H3K14ac (res 8–19)] |  |  |  | ATAD2 reported KDs (ATAD2 bromodomain [1]; result is for the H3K14ac res 1–21 peptide): no binding (res 1–21)[14]
8-(((3R,4R)-3-((1,1-dioxidotetrahydro-2H-thiopyran-4-yl)-methoxy)-piperidin-4-yl)amino)-3-methyl-5-(5-methylpyridin-3-yl)-1,7-naphthyridin-2(1H)-one [compound 38, reference compound] |  |  | no binding | Kd (ATAD2 bromodomain [1]; read-out: ATAD2 reported KDs (binding affinity)): 0.09 µM

— PMC7884259 (Journal of medicinal chemistry, 2020)
